The text below walks through data of ChEMBL document CHEMBL5046300, “Potent Bactericidal Antimycobacterials Targeting the Chaperone ClpC1 Based on the Depsipeptide Natural Products Ecumicin and Ohmyungsamycin A” (2022).

For assay [1], the system named is Mycobacterium tuberculosis. The experiment in a line: Antimycobacterial activity against Mycobacterium tuberculosis mc2 6230 measured after 7 days. The note with it: mc2 6230, 168 h, time 7 day. The class given is functional.
Assay [2] relates to Mycobacterium tuberculosis. The assay is described as follows: Antimycobacterial activity against Mycobacterium tuberculosis mc2 6230 assessed as log reduction in bacteria measured up to 21 days by Time kill assay. Format: functional, organism-based. The note with it: time day <=21.

≈ marks a conversion by molar mass, not a printed value. Calls of active or inactive are those of the source. No cut-off for these calls is given here. *1 amine or outer side, *2 acyl side, *3 side chain or, on linkers, in order; H or OH if unused. Where a SMILES comes first, the peptide text is derived from it. Bridges are numbered along the chain shown (N, C = ends). [ ]: non-standard residue; d: D form. The star is where a group is joined. Phe(3R-OH) = O=C([C@@H](N[*:1])[C@H](O[*:3])c1ccccc1)[*:2]; NMeTrp(4-OMe) = CN[C@@H](Cc1c[nH]c2cccc(OC)c12)C(=O)O; NMeW = CN[C@@H](Cc1c[nH]c2ccccc12)C(=O)O; NMe2Val = CC(C)[C@@H](C(=O)*)N(C)C; Hyp = O=C(O)[C@@H]1C[C@@H](O)CN1; NMeT = CN[C@H](C(=O)O)[C@@H](C)O; NMeL = CN[C@@H](CC(C)C)C(=O)O; NMeDap = CN[C@@H](CN)C(=O)O; NMeNva = CCC[C@H](NC)C(=O)O; NMeV = CN[C@H](C(=O)O)C(C)C; Pip = O=C(O)[C@@H]1CCCCN1

A word on the MIC: it is the lowest concentration found to suppress growth. Higher therefore signals a need for much substance. With `CCC[C@H]1C(=O)N(C)[C@@H](Cc2c[nH]c3ccccc23)C(=O)N[C@@H](C(C)C)C(=O)N[C@@H](Cc2ccccc2)C(=O)N[C@@H](C(C)C)C(=O)O[C@H](C)[C@H](NC(=O)[C@@H](NC(=O)[C@@H](NC)C(C)C)C(C)C)C(=O)N(C)[C@@H]([C@@H](C)O)C(=O)N[C@@H](C(C)C)C(=O)N(C)[C@@H](CC(C)C)C(=O)N[C@@H](C(C)C)C(=O)N1C` (H-[NMeV]VT[NMeT]V[NMeL]V[NMeNva][NMeW]VFV; ester 3-C), the MIC in assay [1] worked out at 0.5 µM (≈ 0.706 µg/mL).

The compound `CN[C@H](C(=O)N[C@H](C(=O)N[C@@H]1C(=O)N(C)[C@@H]([C@@H](C)O)C(=O)N[C@@H](C(C)C)C(=O)N(C)[C@@H](CC(C)C)C(=O)N[C@@H](C(C)C)C(=O)N(C)[C@@H](CC(C)C)C(=O)N(C)[C@@H](Cc2c[nH]c3ccccc23)C(=O)N[C@@H](C(C)C)C(=O)N[C@@H](Cc2ccccc2)C(=O)N[C@@H](C(C)C)C(=O)O[C@@H]1C)C(C)C)C(C)C` (H-[NMeV]VT[NMeT]V[NMeL]V[NMeL][NMeW]VFV; ester 3-C) displayed an MIC in assay [1] of 0.25 µM (≈ 0.357 µg/mL). The outcome in assay [2] was Active.

Consider `CN[C@H](C(=O)N[C@H](C(=O)N[C@@H]1C(=O)N(C)[C@@H]([C@@H](C)O)C(=O)N[C@@H](C(C)C)C(=O)N(C)[C@@H](CC(C)C)C(=O)N[C@@H](C(C)C)C(=O)N(C)[C@@H](CN)C(=O)N(C)[C@@H](Cc2c[nH]c3ccccc23)C(=O)N[C@@H](C(C)C)C(=O)N[C@@H](Cc2ccccc2)C(=O)N[C@@H](C(C)C)C(=O)O[C@@H]1C)C(C)C)C(C)C` (H-[NMeV]VT[NMeT]V[NMeL]V[NMeDap][NMeW]VFV; ester 3-C), for which the MIC in assay [1] amounted to 2 µM (≈ 2.8 µg/mL).

`CN[C@H](C(=O)N[C@H](C(=O)N[C@@H]1C(=O)N(C)[C@@H]([C@@H](C)O)C(=O)N[C@@H](C(C)C)C(=O)N(C)[C@@H](CC(C)C)C(=O)N[C@@H](C(C)C)C(=O)N2CCCC[C@H]2C(=O)N(C)[C@@H](Cc2c[nH]c3ccccc23)C(=O)N[C@@H](C(C)C)C(=O)N[C@@H](Cc2ccccc2)C(=O)N[C@@H](C(C)C)C(=O)O[C@@H]1C)C(C)C)C(C)C` (H-[NMeV]VT[NMeT]V[NMeL]V[Pip][NMeW]VFV; ester 3-C) returned an MIC in assay [1] of 4 µM (≈ 5.64 µg/mL). Compared with the last compound, the MIC is about 2-fold higher.

Consider `CN[C@H](C(=O)N[C@H](C(=O)N[C@@H]1C(=O)N(C)[C@@H]([C@@H](C)O)C(=O)N[C@@H](C(C)C)C(=O)N(C)[C@@H](CC(C)C)C(=O)N[C@@H](C(C)C)C(=O)N2C[C@H](O)C[C@H]2C(=O)N(C)[C@@H](Cc2c[nH]c3ccccc23)C(=O)N[C@@H](C(C)C)C(=O)N[C@@H](Cc2ccccc2)C(=O)N[C@@H](C(C)C)C(=O)O[C@@H]1C)C(C)C)C(C)C` (H-[NMeV]VT[NMeT]V[NMeL]V[Hyp][NMeW]VFV; ester 3-C), for which, in assay [1], the MIC worked out at 8 µM (≈ 11.3 µg/mL). This MIC lies about 2-fold higher than the previous one.

In assay [1], `CN[C@H](C(=O)N[C@H](C(=O)N[C@@H]1C(=O)N(C)[C@@H]([C@@H](C)O)C(=O)N[C@@H](C(C)C)C(=O)N(C)[C@@H](CC(C)C)C(=O)N[C@@H](C(C)C)C(=O)N(C)[C@@H](C(C)C)C(=O)N(C)[C@@H](Cc2c[nH]c3ccccc23)C(=O)N[C@@H](C(C)C)C(=O)N[C@@H](Cc2ccccc2)C(=O)N[C@@H](C(C)C)C(=O)O[C@@H]1C)C(C)C)C(C)C` (H-[NMeV]VT[NMeT]V[NMeL]V[NMeV][NMeW]VFV; ester 3-C) returned an MIC of 0.25 µM (≈ 0.353 µg/mL). In addition, the outcome in assay [2] was Active.

In assay [1], `COc1cccc2[nH]cc(C[C@H]3C(=O)N[C@@H](C(C)C)C(=O)N[C@@H]([C@H](O)c4ccccc4)C(=O)N[C@@H](C(C)C)C(=O)O[C@H](C)[C@H](NC(=O)[C@@H](NC(=O)[C@H](C(C)C)N(C)C)C(C)C)C(=O)N(C)[C@@H]([C@@H](C)O)C(=O)N[C@@H](C(C)C)C(=O)N(C)[C@@H](CC(C)C)C(=O)N[C@@H](C(C)C)C(=O)N(C)[C@@H](C(C)C)C(=O)N3C)c12` (NMe2Val-VT[NMeT]V[NMeL]V[NMeV][NMeTrp(4-OMe)]V[Phe(3R-OH)]V; ester 2-C) displayed an MIC of 0.5 µM (≈ 0.736 µg/mL).
